± gives the standard deviation of the averaged measurements.
Key:
MLN-4924 = compound: NS(=O)(=O)OC[C@@H]1C[C@@H](n2ccc3c(N[C@H]4CCc5ccccc54)ncnc32)C[C@@H]1O [MLN-4924]; assay: surviving fraction relative to DMSO-only wells; higher = less growth inhibition; details: exposure time: 5 days
Outline: (§1)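 Surviving fraction is CellTiter-Glo luminescence divided by the median of wells given DMSO only. For this, log-phase tumour cell lines went into 384-well plates at 250–500 cells per well and, 24 hours later, into five days of continuous inhibitor exposure at 0.5, 1, 5, 10, 50, 100, 500 and 1000 nM. Lines were screened three times and retained only if replicate Pearson r >0.7 and median Z' >0.3.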

OLAPARIB = compound: O=C(c1cc(Cc2n[nH]c(=O)c3ccccc23)ccc1F)N1CCN(C(=O)C2CC2)CC1 [OLAPARIB]; assay: as above; details: exposure time: 5 days
Outline: as §1

## SYO1 SYNOVIAL
MLN-4924; 0.5 nM
  surviving fraction: 0.996 ± 0.05
MLN-4924; 1 nM
  surviving fraction: 0.996 ± 0.029
MLN-4924; 5 nM
  surviving fraction: 1.01 ± 0.039
MLN-4924; 10 nM
  surviving fraction: 0.992 ± 0.03
MLN-4924; 50 nM
  surviving fraction: 0.65 ± 0.019
MLN-4924; 100 nM
  surviving fraction: 0.334 ± 0.028
MLN-4924; 500 nM
  surviving fraction: 0.0614 ± 0.0023
MLN-4924; 1000 nM
  surviving fraction: 0.0519 ± 0.0031
OLAPARIB; 0.5 nM
  surviving fraction: 0.992 ± 0.055
OLAPARIB; 1 nM
  surviving fraction: 0.95 ± 0.053
OLAPARIB; 5 nM
  surviving fraction: 0.924 ± 0.045
OLAPARIB; 10 nM
  surviving fraction: 0.881 ± 0.06
OLAPARIB; 50 nM
  surviving fraction: 0.724 ± 0.025
OLAPARIB; 100 nM
  surviving fraction: 0.6731 ± 0.0055
OLAPARIB; 500 nM
  surviving fraction: 0.564 ± 0.044
OLAPARIB; 1000 nM
  surviving fraction: 0.429 ± 0.027

## T47D BREAST
MLN-4924; 0.5 nM
  surviving fraction: 1.04 ± 0.012
MLN-4924; 1 nM
  surviving fraction: 1.02 ± 0.021
MLN-4924; 5 nM
  surviving fraction: 0.916 ± 0.036
MLN-4924; 10 nM
  surviving fraction: 0.835 ± 0.037
MLN-4924; 50 nM
  surviving fraction: 0.67 ± 0.023
MLN-4924; 100 nM
  surviving fraction: 0.694 ± 0.011
MLN-4924; 500 nM
  surviving fraction: 0.279 ± 0.019
MLN-4924; 1000 nM
  surviving fraction: 0.27 ± 0.028
OLAPARIB; 0.5 nM
  surviving fraction: 1.01 ± 0.04
OLAPARIB; 1 nM
  surviving fraction: 1 ± 0.052
OLAPARIB; 5 nM
  surviving fraction: 0.986 ± 0.011
OLAPARIB; 10 nM
  surviving fraction: 0.982 ± 0.027
OLAPARIB; 50 nM
  surviving fraction: 0.997 ± 0.061
OLAPARIB; 100 nM
  surviving fraction: 0.9606 ± 0.0086
OLAPARIB; 500 nM
  surviving fraction: 0.971 ± 0.05
OLAPARIB; 1000 nM
  surviving fraction: 0.864 ± 0.023

## U2OS BONE
MLN-4924; 0.5 nM
  surviving fraction: 1.028 ± 0.0045
MLN-4924; 1 nM
  surviving fraction: 1.01 ± 0.015
MLN-4924; 5 nM
  surviving fraction: 0.988 ± 0.04
MLN-4924; 10 nM
  surviving fraction: 1.03 ± 0.049
MLN-4924; 50 nM
  surviving fraction: 1.04 ± 0.036
MLN-4924; 100 nM
  surviving fraction: 0.859 ± 0.022
MLN-4924; 500 nM
  surviving fraction: 0.403 ± 0.028
MLN-4924; 1000 nM
  surviving fraction: 0.176 ± 0.015
OLAPARIB; 0.5 nM
  surviving fraction: 1.08 ± 0.045
OLAPARIB; 1 nM
  surviving fraction: 1.05 ± 0.069
OLAPARIB; 5 nM
  surviving fraction: 1.06 ± 0.044
OLAPARIB; 10 nM
  surviving fraction: 1.07 ± 0.04
OLAPARIB; 50 nM
  surviving fraction: 1.05 ± 0.055
OLAPARIB; 100 nM
  surviving fraction: 1.01 ± 0.046
OLAPARIB; 500 nM
  surviving fraction: 0.945 ± 0.018
OLAPARIB; 1000 nM
  surviving fraction: 0.877 ± 0.032

## VCAP PROSTATE
MLN-4924; 0.5 nM
  surviving fraction: 0.977 ± 0.06
MLN-4924; 1 nM
  surviving fraction: 1.08 ± 0.074
MLN-4924; 5 nM
  surviving fraction: 1.08 ± 0.15
MLN-4924; 10 nM
  surviving fraction: 0.926 ± 0.035
MLN-4924; 50 nM
  surviving fraction: 0.526 ± 0.029
MLN-4924; 100 nM
  surviving fraction: 0.401 ± 0.088
MLN-4924; 500 nM
  surviving fraction: 0.198 ± 0.046
MLN-4924; 1000 nM
  surviving fraction: 0.169 ± 0.079
OLAPARIB; 0.5 nM
  surviving fraction: 1.17 ± 0.067
OLAPARIB; 1 nM
  surviving fraction: 1.1 ± 0.074
OLAPARIB; 5 nM
  surviving fraction: 1.17 ± 0.089
OLAPARIB; 10 nM
  surviving fraction: 1.04 ± 0.13
OLAPARIB; 50 nM
  surviving fraction: 1.08 ± 0.09
OLAPARIB; 100 nM
  surviving fraction: 1.09 ± 0.12
OLAPARIB; 500 nM
  surviving fraction: 1.03 ± 0.089
OLAPARIB; 1000 nM
  surviving fraction: 0.922 ± 0.074

## VP229 BREAST
MLN-4924; 0.5 nM
  surviving fraction: 1.07 ± 0.16
MLN-4924; 1 nM
  surviving fraction: 1.08 ± 0.19
MLN-4924; 5 nM
  surviving fraction: 1.17 ± 0.028
MLN-4924; 10 nM
  surviving fraction: 1.14 ± 0.22
MLN-4924; 50 nM
  surviving fraction: 1.04 ± 0.033
MLN-4924; 100 nM
  surviving fraction: 0.891 ± 0.12
MLN-4924; 500 nM
  surviving fraction: 0.233 ± 0.082
MLN-4924; 1000 nM
  surviving fraction: 0.127 ± 0.022
OLAPARIB; 0.5 nM
  surviving fraction: 1.07 ± 0.11
OLAPARIB; 1 nM
  surviving fraction: 1.08 ± 0.13
OLAPARIB; 5 nM
  surviving fraction: 1.01 ± 0.021
OLAPARIB; 10 nM
  surviving fraction: 1.12 ± 0.19
OLAPARIB; 50 nM
  surviving fraction: 0.886 ± 0.071
OLAPARIB; 100 nM
  surviving fraction: 0.788 ± 0.068
OLAPARIB; 500 nM
  surviving fraction: 0.879 ± 0.12
OLAPARIB; 1000 nM
  surviving fraction: 0.821 ± 0.046

## YAMATO SYNOVIAL
MLN-4924; 0.5 nM
  surviving fraction: 1.33 ± 0.091
MLN-4924; 1 nM
  surviving fraction: 1.25 ± 0.019
MLN-4924; 5 nM
  surviving fraction: 1.33 ± 0.085
MLN-4924; 10 nM
  surviving fraction: 1.31 ± 0.21
MLN-4924; 50 nM
  surviving fraction: 1.21 ± 0.11
MLN-4924; 100 nM
  surviving fraction: 0.805 ± 0.058
MLN-4924; 500 nM
  surviving fraction: 0.637 ± 0.041
MLN-4924; 1000 nM
  surviving fraction: 0.492 ± 0.045
OLAPARIB; 0.5 nM
  surviving fraction: 1.38 ± 0.12
OLAPARIB; 1 nM
  surviving fraction: 1.4 ± 0.08
OLAPARIB; 5 nM
  surviving fraction: 1.49 ± 0.062
OLAPARIB; 10 nM
  surviving fraction: 1.37 ± 0.11
OLAPARIB; 50 nM
  surviving fraction: 0.894 ± 0.084
OLAPARIB; 100 nM
  surviving fraction: 0.871 ± 0.092
OLAPARIB; 500 nM
  surviving fraction: 0.819 ± 0.02
OLAPARIB; 1000 nM
  surviving fraction: 0.738 ± 0.044

## ZR751 BREAST
MLN-4924; 0.5 nM
  surviving fraction: 1.23 ± 0.056
MLN-4924; 1 nM
  surviving fraction: 1.08 ± 0.17
MLN-4924; 5 nM
  surviving fraction: 1.13 ± 0.13
MLN-4924; 10 nM
  surviving fraction: 1.24 ± 0.036
MLN-4924; 50 nM
  surviving fraction: 1.06 ± 0.13
MLN-4924; 100 nM
  surviving fraction: 1.03 ± 0.092
MLN-4924; 500 nM
  surviving fraction: 0.784 ± 0.11
MLN-4924; 1000 nM
  surviving fraction: 0.669 ± 0.063
OLAPARIB; 0.5 nM
  surviving fraction: 1.11 ± 0.17
OLAPARIB; 1 nM
  surviving fraction: 1.08 ± 0.13
OLAPARIB; 5 nM
  surviving fraction: 1.08 ± 0.35
OLAPARIB; 10 nM
  surviving fraction: 1.01 ± 0.1
OLAPARIB; 50 nM
  surviving fraction: 1.1 ± 0.023
OLAPARIB; 100 nM
  surviving fraction: 1.11 ± 0.086
OLAPARIB; 500 nM
  surviving fraction: 1.14 ± 0.089
OLAPARIB; 1000 nM
  surviving fraction: 1.02 ± 0.14

— the supplement of paper PMC6045584
